PMC9995618 (Journal of Genetic Engineering & Biotechnology, 2023)

Tested on: T1, tick larvae glutathione S transferase (TLGST)
T1 construct: native enzyme purified from larvae (42 kDa; 28 and 14 kDa subunits)
Assay: CDNB-GSH conjugation assay, Lineweaver-Burk and Ki plot
Assay type: biochemical, Hyalomma dromedarii

Compound `O=C(O)c1cc[c]([Hg][Cl])cc1` [p-chloromercuribenzoic acid] has a Ki of 300 µM.
